Measurements: patent US4965270A, “Purine derivatives” (Beecham Group p.l.c., priority 1989, dated 1990)
≈ marks a conversion by molar mass, not a printed value.

Key:
Assay type in all cases: cell-based
[1] = system: herpes simplex virus 1, strain SC16; test: CPE inhibition test (replicating cells), herpes simplex virus 1 (strain SC16); conditions: Human alphaherpesvirus 1, SC16, MRC5, SC16 strain in MRC-5 cells; each figure is a single test; read-out: IC50, Herpes Simplex Type 1 virus
Description: 3. CPE Inhibition Test (Replicating Cells) for Herpes Simplex Virus 1 MRC-5 cells (in Eagles MEM containing 5% newborn calf serum) were infected in suspension with herpes simplex virus 1, strain SC16 (approximately one infectious particle per 10 cells). One hundred microliters of the infected cell suspension (containing approximately 2× 10^4 cells) were dispensed into each well of a 96 well microtitre plate containing an equal volume of the test drug in medium (Eagles MEM containing 5% newborn calf serum) at concentrations ranging from 200 to 0.09 μg/ml (3-fold dilution steps); final concentrations therefore ranged between 100 to 0.045 μg/ml. The plates were then incubated at 37° C. in a humidified atmosphere of 5% CO2 for 3 days when the virus-induced cytopathic effect (CPE) in the control wells reached 100%. The plates were fixed in formal saline and stained with carbol fuchsin. […] Plates of uninfected cells were set up in parallel to determine the minimum concentration of test compound which caused cytotoxicity.

[2] = system: herpes simplex virus 2 (HSV-2; strain MS); test: Plaque reduction test, herpes simplex virus 2 (strain MS); conditions: Human alphaherpesvirus 2, MRC5, MS strain in MRC-5 cells; each figure is a single test; read-out: IC50, Herpes Simplex Type 2 virus
Procedure: Plaque Reduction Test for Heroes Simplex viruses 1 and 2. Cells (vero or MRC-5) were grown to confluence in 24 well multi-dishes (well diameter 1.5 cm). The drained cell monolayers were each infected with approximately 50 infectious particles of herpes simplex virus 1 (HSV-1; strain HFEM) or herpes simplex virus 2 (HSV-2; strain MS) in 100 μof phosphate-bufferedsaline. The virus was adsorbed for 1 hour at room temperature. After adsorption, residual inoculum was removed from each well and replaced with 0.5ml of Eagle's MEM containing 5% newborn calf serum and 0.9% agarose (A37). Once the agarose had set, dilutions of the test compound, which had been prepared in Eagle's MEM (containing 5% newborn calf serum), were added, each well receiving 0.5ml of liquid overlay. The test compound was diluted to give the following series of […] concentrations: 200, 60, 20, 6 . . . 0.06 μg/ml; final concentrations in the assay ranged, therefore, between 100 μg/ml and 0.03 μg/ml. […]
Cultures from 1 and 2 were fixed in formal saline, the agarose overlays were carefully washed off, and then the cell monolayers were stained with carbol fuchsin. […] In addition, the monolayers were examined for evidence of drug-induced cytotoxicity; the minimum concentration at which cytotoxicity occurs was recorded.

[3] = system: visna virus (strain K184); test: CPE inhibition test (established monolayer), visna virus; conditions: Visna-maedi virus; K184 strain in SCP cells; minimum concentration giving complete protection of the cell monolayers
Procedure: 4. CPE Inhibition Test (Established Monolayer) for Lentiviruses
3×10^4 sheep choroid plexus (SCP) cells were plated into individual wells of a 96 well microtitre plate in 100 μl of Eagle's MEM with Hanks salts containing 10% heat inactivated foetal calf serum (FCS). When monolayers had become established (after 1 or 2 days growth) they were washed with 200 μl of maintenance medium (Eagle's MEM with Hanks salts containing 0.5% FCS) and infected with 100μl of visna virus (strain K184) in maintenance medium (30 TCID50/ ml). Test samples were diluted with maintenance medium in further 96 well microtitre plates over the range 200-0.09 μg/ml by 3-fold dilution steps. 100 μl of the diluted samples was then transferred directly onto virus-infected monolayers (final concentration range therefore 100-0.045 μg/ml) and incubated at 37° C. in a humidified, 5% CO2 incubation until virus-induced CPE was maximal in the untreated virus-infected controls (usually 12-14 days). The plates were fixed with formal saline and stained with crystal violet.
Virus-induced CPE was then scored microscopically and the minimum concentration of sample giving complete protection of the cell monolayers (MIC) determined.

Row | Structure (SMILES) | MIC [3] [mg/L] | IC50 [1] [mg/L] | IC50 [2] [mg/L]
1 | Nc1nc2c(ncn2OCC(CO)CO)c(=O)[nH]1 [Example 5, 9-(3-Hydroxy-2-hydroxymethylprop-1-oxy)guanine] | 0.1 (≈ 0.392 µM) | – | –
2 | Nc1nc2c(ncn2OCCCO)c(=O)[nH]1 [Example 1, 9-(3-Hydroxyprop-1-oxy)guanine] | 3 (≈ 13.3 µM) | – | –
3 | Nc1nc2c(ncn2OCC(O)CO)c(=O)[nH]1 (stereo not shown) [Example 6, 9-(2,3-Dihydroxyprop-1-oxy)guanine] | 10 (≈ 41.5 µM) | – | –

Second part, led by results:

Row | MIC [3] [mg/L] | Structure (SMILES) | IC50 [1] [mg/L] | IC50 [2] [mg/L]
4 | 10 (≈ 41.5 µM) | Nc1nc2c(ncn2OC[C@@H](O)CO)c(=O)[nH]1 [Example 31, (S)-9-(2,3-Dihydroxyprop-1-oxy)guanine] | 0.7 (≈ 2.9 µM) | 0.06 (≈ 0.249 µM)
5 | 30 (≈ 118 µM) | Nc1nc2c(ncn2OC(CO)CCO)c(=O)[nH]1 (stereo not shown) [Example 8, 9-(1,4-Dihydroxybut-2-oxy)guanine] | – | –
